Measured values taken from PMC9977398, “Next-generation membrane-active glycopeptide antibiotics that also inhibit bacterial cell division” (Chemical Science, 2023).
Read-outs that look alike come from different tables or passages of the source.

Key:
MRSA [1] = experiment: Frequency of resistance; assay type: cell-based, S. aureus
From the text: Having observed the multiple mechanisms of VanQAmC10, the potential as a preclinical candidate was examined. […] The frequency of resistance for both vancomycin and VanQAmC10 against MRSA was <10^−8 indicating the absence of spontaneous mutants.

MRSA [2] = experiment: Resistance study, serial passaging at sub-MIC; assay type: cell-based, S. aureus; details: after 20 passages at sub-MIC
Experimental: Having observed the multiple mechanisms of VanQAmC10, the potential as a preclinical candidate was examined. […] The frequency of resistance for both vancomycin and VanQAmC10 against MRSA was <10^−8 indicating the absence of spontaneous mutants. […]
from 10 μg/mL. The bacteria with compounds and untreated control were incubated for 18 h at 37 ̊C under shaking and OD600 was measured.
Microscopy of ΔamiAC MG1655 E. coli
ΔamiAC MG1655 was cultured overnight in LB media at 37 ̊C. Cells were then inoculated in LB media at 1:100 dilution ratio and made to grow till O.D600 0.1. The cells were then treated with 4 μg/mL concentration of vancomycin and VanQAmC10 or left untreated for 2 h. […]
MRSA ATCC 33591 was grown to mid-log phase at 37 °C. […] The viable bacteria were then counted after 48 h incubation at 37 °C. […]
Antagonization of antibacterial activity of AAV-qC10 was determined by addition of 500 μM N,N՛-diacetyl–L-Lys–D-Ala–D-Ala or 100 μg/mL of lipoteichoic acid to serial dilutions of the test compound. The MIC was then determined against MRSA by measuring the OD600 18-24 […]
Vancomycin was chosen as control antibiotic for MRSA. The initial MIC values of VanQAmC10, vancomycin were determined against the respective bacteria. […]
The doses for administration, were given modified OECD guidelines. LD50 was determined using Spearman-Karber method. […]

VRE ATCC 51575 = experiment: Activity in blood plasma and liver homogenate; assay type: cell-based, E. faecalis; details: for MIC: Enterococcus, VRE ATCC 51575
Experimental: Table S1: Activity of VanQAmC10 in mouse plasma and liver homogenate against MRSA […]
MIC of VanQAmC10 post incubation in (μM) […]
Activity in blood plasma and liver homogenate
To examine the susceptibility of VanQAmC10 to serum proteases, the antibacterial activities was tested in the presence of 50% of plasma and liver homogenate. Briefly, 250 μL of VanQAmC10 was added into 250 μL of fresh […] plasma and incubated at 37 °C. An aliquot of the samples 3 h and 24h post-incubation was diluted in 0.9% saline and the antibacterial activity (MIC) were determined against MRSA and VRE by following the same protocol as described above for the antibacterial assay. […]
50 μL of ∼10^6 CFU/mL bacterial inoculum (MRSA ATCC33591) was injected into the thigh. 1 h post-inoculation, animals were treated intraperitoneally twice with 12 h intervals with saline, vancomycin (12 mg kg−1), and VanQAmC10 (12 mg kg−1). 24 h post the first treatment, the animals were euthanized (using ether) and the thighs were collected aseptically. The thigh tissue was weighed and homogenized. The dilutions of the homogenate were plated onto agar plates, which were incubated overnight at about 37 °C. […]
In-vivo activity in murine burn wound infectionmodel 10-12

E. coli = experiment: MIC against E. coli; assay type: cell-based; details: Escherichia coli

Row | Compound | frequency of resistance (MRSA [1]) | increase in MIC (resistance development) (MRSA [2]) | MIC (VRE ATCC 51575; 50% plasma, 37 °C, read-out: MIC post incubation in plasma) [µM] | MIC (VRE ATCC 51575; read-out: MIC post incubation in liver homogenate) [µM] | MIC (VRE ATCC 51575; read-out: MIC post incubation in media) [µM] | change of MIC in plasma and liver homogenate (VRE ATCC 51575; VRE) | MIC (E. coli) [µM]
1 | CCCCCCCCCCNC(=O)C[N+](C)(C)CCCNC(=O)C1NC(=O)C2NC(=O)C(NC(=O)C3NC(=O)C(CC(N)=O)NC(=O)C(NC(=O)C(CC(C)C)NC)C(O)c4ccc(c(Cl)c4)Oc4cc3cc(c4OC3OC(CO)C(O)C(O)C3OC3CC(C)(N)C(O)C(C)O3)Oc3ccc(cc3Cl)C2O)c2ccc(O)c(c2)-c2c(O)cc(O)cc21 (stereo not drawn) [VanQAmC10 (8)] | < 10^−8 | lack of resistance development | 4 | 4 | 4 | remained unchanged | 16
2 | CN[C@H](CC(C)C)C(=O)N[C@H]1C(=O)N[C@@H](CC(N)=O)C(=O)N[C@H]2C(=O)N[C@H]3C(=O)N[C@H](C(=O)N[C@H](C(=O)O)c4cc(O)cc(O)c4-c4cc3ccc4O)[C@H](O)c3ccc(c(Cl)c3)Oc3cc2cc(c3O[C@@H]2O[C@H](CO)[C@@H](O)[C@H](O)[C@H]2O[C@H]2C[C@](C)(N)[C@H](O)[C@H](C)O2)Oc2ccc(cc2Cl)[C@H]1O [Vancomycin, reference compound] | < 10^−8 | 2 fold | – | – | – | – | –
